Data as given in patent publication US8044080B2, “Isoxazoline derivative and novel process for its preparation” (LG Life Sciences Ltd., priority 2005, dated 2011).

Legend:
[1] = Stability test of amorphous and crystalline form under severe condition (60° C.); format: physicochemical; conditions: after 28 days
From the text: Therefore, it should be understood that the crystalline form has better stability than the amorphous form enough to be used for the composition of inhibitor or therapeutic agent.

[2] = system: LPS-Induced Acute Hepatitis in Mice; experiment: Treatment effect on LPS-induced acute hepatitis in mice (blood plasma ALT activity); format: in vivo, Male Balb/c mice; conditions: Mus musculus, LPS/D-Gln model, plasma ALT 8 hours after drug injection
[3] = system: Fas Antibody-Induced Acute Hepatitis in Mice; experiment: Treatment effect on Fas antibody-induced acute hepatitis in mice (blood plasma ALT activity); format: in vivo, Male Balb/c mice; conditions: Mus musculus, Fas antibody model, plasma ALT 8 hours after drug injection

amount destroyed in stability test [1]	quantitative amount in stability test [1]	Structure (SMILES)	ED50 ([2]; intravenous administration)	ED50 ([2]; oral administration)	ED50 ([3]; intravenous administration)	ED50 ([3]; oral administration)
50%	not decreased at all	CC(C)[C@@]1(C(=O)N[C@H]2CC(=O)O[C@]2(O)CF)CC(c2nccc3ccccc23)=NO1 [(4S,5S)-5-fluoromethyl-5-hydroxy-4-({[(5R)-5-isopropyl-3-(1-isoquinolinyl)-4,5-dihydro-5-isoxazolyl]carbonyl}amino)-2-dihydrofuranone]				
		CC(C)[C@@]1(C(=O)N[C@H]2CC(=O)O[C@]2(O)CF)CC(c2nccc3ccccc23)=NO1 [compound of formula (1), (4S,5S)-5-fluoromethyl-5-hydroxy-4-({[(5R)-5-isopropyl-3-(1-isoquinolinyl)-4,5-dihydro-5-isoxazolyl]carbonyl}amino)-2-dihydrofuranone]	0.015 mg/kg	0.02 mg/kg	0.003 mg/kg	0.018 mg/kg
